Experimental data taken from US9290478B2, “Substituted quinoxalines as FGFR kinase inhibitors” (ASTEX THERAPEUTICS LTD, priority 2010, dated 2016).
Where “and” joins values, the source holds several entries; their conditions need not be identical. Identical values can stand only once. Counter-ions that a name gives are not always drawn.

| melting point | SMILES |
| --- | --- |
| 172 °C | COc1cc(OC)cc(C(CCNC(C)C)c2ccc3ncc(-c4cnn(C)c4)nc3c2)c1 (single isomer, unassigned) (as salt: oxalic acid salt) [Compound 32a] |
| 154 °C | COc1cc(OC)cc(C(CC(C)=O)c2ccc3ncc(-c4cnn(C)c4)nc3c2)c1 (stereo not drawn) [Compound 16] |
| 163 °C and 162 °C | COc1cc(OC)cc(C(CCNC(C)C)c2ccc3ncc(-c4cnn(C)c4)nc3c2)c1 (single isomer, unassigned) (as salt: oxalic acid salt) [Compound 19a] |
